# Data as given in patent US20230218714A1, “DIAGNOSTICS AND USE OF QUORUM SENSING MOLECULES IN MUSCLE WASTING” (Universiteit Gent, priority 2019, published 2023).
# Several values for one entry are separate records, joined by “and”; a condition that tells them apart may be missing. Identical values can stand only once. Entries after “also recorded” stand apart in the source; their conditions may differ. Where no end group is shown, it is not given here.
# Tests used:
# [1] = tested on: C2C12 cells; experiment: Co-treatment of C2C12 cells with Q176 and ala-scan derivative, MTT response; type: cell-based, mouse; conditions: Q176 50 μM plus derivative 60 μM
# Source text: (§1) Means±SEM, n=6. * P<0.05; ** P<0.01, *** P<0.001; paired Student's t test.
# [2] = tested on: C2C12 cells; experiment: Co-treatment of C2C12 cells with QSP and ala-scan derivative, IL-6 response; type: cell-based, mouse; conditions: Q176 50 μM plus derivative 60 μM
# Source text: as §1
# [3] = tested on: human muscle cells; experiment: IL-6 production dose response in human muscle cells; type: cell-based; conditions: FIG. 12
# Description: (§2) Differentiation medium consisted of high glucose Glutamax DMEM supplemented with penicillin (100 units/ml), streptomycin (100 μg/ml) and insulin (10 μg/mL).
# (§3) Using similar methods as described for the C2C12 experiments, a number of QSPs were tested for a dose response relation in human muscle cells.
# [4] = tested on: IL-6 production by C2C12 myotubes; experiment: IL-6 production by C2C12 myotubes (sandwich ELISA); type: cell-based, mouse; conditions: for Effect: inflammation (IL-6 production, hit direction): screening at 1 μM
# Description: C2C12 myoblasts (2.5×10^4 cells/well) were seeded in 96-well plates and incubated until they reached 80% confluency, after which the proliferation medium was removed and replaced by differentiation medium. After 6 days of incubation with daily renewed differentiation medium, the cells were treated with 1 μM of QSM, placebo or positive control (LPS) for 24 hours. IL-6 levels were determined in the supernatants using a sandwich ELISA (eBioscience), using IL-6 capture antibody, blocking solution, samples and standards, IL-6 detection antibody, avidin-horseradish peroxidase and substrate solution which were added sequentially, with washing steps in between. After stopping the reaction with H2SO4 solution, the absorbance was measured at 450 nm and 570 nm (correction wavelength) using a microplate reader (ThermoLab Systems). Concentrations were determined using the standard curves generated with known concentrations of IL-6.
# Several pro-inflammatory cytokines are elevated in sepsis, cancer, ageing and other catabolic diseases. They are thought to trigger muscle wasting (partly) through NF-kB pathways. […] In these screening experiments, the effects of QSM on myotube IL-6 production were assessed using a sandwich ELISA.
# (§4) In a further set of experiments, using similar methods as described for the screening experiments, a number of QSPs were tested for a dose response relation in C2C12 cells.
# [5] = tested on: GDF15 production by C2C12 myotubes; experiment: GDF15 production by C2C12 myotubes (sandwich ELISA), mitochondrial changes; type: cell-based, mouse; conditions: QSM 1 μM, C2C12 myotubes
# Description: GDF15 levels were determined in the supernatants of C2C12 cells after QSM, placebo or positive control (oligomyin) treatment, using a sandwich ELISA (R&D Systems). A similar protocol as described for the IL-6 determination was used.
# GDF15 is considered a useful biomarker for direct or indirect changes in mitochondrial function. Moreover, GDF15 is implicated in muscle wasting diseases like sarcopenia, chronic obstructive pulmonary disease cachexia and critical illness.
# [6] = tested on: atrogin, MuRF1, caspase 3 and atg7; experiment: Protein degradation gene expression in C2C12 cells (RT-qPCR); type: cell-based, mouse
# Description: C2C12 cells were seeded in 6-well (4×10^5 cells/well) or 12-well plates (1.5×10^5 cells/well). […] Thereafter, cells were scraped off from the well surface and resuspended in RLT lysis buffer (Qiagen). RNA was extracted from these lysed cells using RNeasy micro columns (Qiagen). Subsequently, RNA was reverse-transcribed using a mix of oligo-dT and random primers together with Quantiscript reverse transcriptase (Qiagen). DNAse steps were included in the protocol to remove possible DNA contamination. Real-time PCR was performed starting with 7.5 ng cDNA and both sense and antisense oligonucleotides in a final volume of 8 μl in a 384-well plate using the SensiMix SYBR green PCR master mix (Bioline). The following genes were analysed: atrogin, MuRF1, caspase 3 and atg7.
# The second derivative method was used to determine the threshold or Cq values, with analysis of Ppia (Peptidylprolyl isomerase A), Rer (Rhodopsin enhancer region) and Hprt (Hypoxanthine-guanine phosphoribosyltransferase) mRNA to normalize gene expression (delta Cq method). […]
# To screen the possible effects of 75 QSM on these 3 proteolysis systems, mRNA transcripts of the following representative genes were measured: atrogin and MuRF1 (UPS), caspase 3 (apoptosis system) and autophagy-related protein 7 (autophagy system). […]
# [7] = tested on: human muscle cells; experiment: MTT reduction dose response in human muscle cells; type: cell-based; conditions: FIG. 9
# Description: as §2, §3
# [8] = tested on: C. elegans; experiment: C. elegans swimming behaviour (muscle wasting/aging model); type: in vivo; parameters: key to Wave initiation rate / Asymmetry / Stretch / Curling / Travel speed / Brush stroke / Activity index: relative to placebo set to 1.0; conditions: for muscle wasting / aging muscle phenotype in C. elegans: QSP in medium (1 μM; QSP022 also 10 μM), swimming parameters; for Activity index / Asymmetry / Body wave number / Brush stroke / Curling / Stretch / Travel speed / Wave initiation rate: DMSO positive control
# Source text: The C. elegans model is a well-established aging model: they diminish in locomotory vigor as they age, a phenomenon that is attributed to a physical deterioration of muscle and synapses. QSPs were introduced in the medium of living C. elegans. As comparisons, a placebo experiment was used as negative control, while DMSO was used as positive control.
# Using automatic, objective imaging software, different swimming behaviour variables associated with this decrease in locomotory vigor or muscle wasting were investigated. Wave initiation rate, travel speed, brush stroke and activity index do decrease with muscle wasting, while body wave number, asymmetry, curling and stretch do increase with muscle wasting, as described in Restif et al., Plos Computational Biology, 2014.
# More in particular, the results in these tables show Q184-associated changes in three swimming parameters in wild-type adults at day 3 (Table 9) and day 12 (Table 10) (n=120-170 from 3 independent trials for each condition). Data presented are means±s.e.m (placebo set to 1.0).
# [9] = tested on: C2C12 myotubes; experiment: MTT reduction dose response in C2C12 myotubes; type: cell-based, mouse
# Description: as §4
# [10] = tested on: C2C12 myoblasts; experiment: MTT cell viability assay in C2C12 myoblasts
# Description: The mouse myoblast C2C12 cell line (ATCC, CRL-1772) was cultured at 37° C. in a 5% CO2 humidified incubator in Dulbecco's modified Eagle medium (DMEM; Thermo Fisher Scientific). For C2C12 cell proliferation, the medium was supplemented with 10% fetal bovine serum (FBS; Thermo Fisher Scientific), 100 units/ml penicillin, and 100 μg/ml streptomycin (1% Pen/Strep; Thermo Fisher Scientific). The proliferation medium was renewed each 2-3 days and confluency was kept below 80%. For differentiation of the C2C12 myoblasts into myotubes, proliferation medium was replaced by differentiation medium when cells reached 80% confluency.
# Viability of QSM was assessed using the 3-(4,5-dimethylthiazol-2-yl)-2,5-diphenyltetrazolium bromide (MTT) assay. Briefly, C2C12 myoblasts were seeded in a 96-well plate (3×10^4 cells/well). 24 hours post-seeding, the wells were treated with QSM (1 μM), placebo or positive control (DMSO 2%) and incubated for 24 hours at 37° C. Next, 20 μL of MTT reagent (5 mg/mL; Sigma-Aldrich) was added to each well and the plates were returned to the incubator for 2.5 hours. After incubation, supernatant was removed from the wells and 150 μL of DMSO was added to release and dissolve the formazan crystals. Absorbance was measured at 570 nm using a microplate reader (Thermo Fisher).
# The MTT assay is a widely validated and accepted viability assay for screening experiments. In this assay, the reduction of MTT into formazan, catalysed by living cell enzymes, is used as a marker of cell viability. If QSM are cytotoxic or cytostatic towards C2C12 cells, a decrease in MTT reduction is expected (viability less than 100%), while an increased C2C12 proliferation caused by QSM will result in an increased MTT reduction (viability more than 100%).
# In a further set of experiments, the dose response effect of QSPs Q22 and Q184 was assessed on MTT reduction of C2C12 myotubes (tables 7.4 and 7.5).
# [11] = C. elegans medium, 1 μM during 12 days
# [12] = day 3, placebo set to 1.0, Q184 at 1 μM
# [13] = day 12, placebo set to 1.0, Q184 at 1 μM
substance,measurement,setting,value
GSLSTFFRLFNASFTQALGK (Synthetic Q176-A13),effect on Q176 mediated MTT effect,[1],inhibiting the Q176 mediated MTT effect
same,effect on Q176 mediated MTT effect,[1]; listed as QSP176-A13,clearly abolishes both effects
same,effect on Q176 mediated IL-6 induction,[2],inhibiting the Q176 mediated IL-6 induction
same,effect on Q176 mediated IL-6 induction,[2]; listed as QSP176-A13,clearly abolishes both effects
KSSAYSLQMGATAIKQVKKLFKKWGW [Q125],"dose response relation, IL6 production",[3],Typical curves were obtained
same,relative IL-6 production,"[4]; QSM 1 μM, 24 h, relative to median of all QSM",171%
same,Relative IL-6,[4]; concentration 0.20 μM,0.89
same,Relative IL-6,[4]; concentration 0.39 μM,0.90
same,Relative IL-6,[4]; concentration 1.56 μM,1.28
same,Relative IL-6,[4]; concentration 3.13 μM,1.96
same,Relative IL-6,[4]; concentration 6.25 μM,2.08
same,Relative IL-6,[4]; concentration 12.5 μM,4.89
same,Relative IL-6,[4]; concentration 25 μM,5.55
same,Relative IL-6,[4]; concentration 50 μM,8.23
same,Relative IL-6,[4]; concentration 100 μM,9.80
same,"Effect: inflammation (IL-6 production, hit direction)",[4],increased IL-6 production; also recorded: ↑ inflammation
NEVPFEF [Q146],"GDF15 secretion, effect relative to median",[5],80%
same,decrease in MuRF1 gene expression compared to placebo,"[6]; QSM 1 μM, 24 h, individual screening",~20% and 20%
same,Effect: proteolysis (hit direction),[6]; screening at 1 μM,↓ proteolysis
SGSLSTFFRLFNRSFTQALGK [Q176],"dose response relation, IL6 production",[3],Typical curves were obtained
same,Relative IL-6,[4]; concentration 0.20 μM,1.00
same,Relative IL-6,[4]; concentration 0.39 μM,0.89
same,Relative IL-6,[4]; concentration 1.56 μM,1.53
same,Relative IL-6,[4]; concentration 3.13 μM,1.61
same,Relative IL-6,[4]; concentration 6.25 μM,2.39
same,Relative IL-6,[4]; concentration 12.5 μM,3.24
same,Relative IL-6,[4]; concentration 25 μM,3.49
same,Relative IL-6,[4]; concentration 50 μM,5.81
same,Relative IL-6,[4]; concentration 100 μM,6.01
same,"Effect: inflammation (IL-6 production, hit direction)",[4],increased IL-6 production; also recorded: ↑ inflammation
"SIFTLVA [Q184, SIFTLVA]","dose response relation, MTT reduction",[7],Typical curves were obtained
same,muscle wasting / aging muscle phenotype in C. elegans,[8],induced a muscle wasting phenotype; also recorded: muscle wasting effects; also recorded: inducing a muscle wasting phenotype
same,muscle wasting / aging muscle phenotype in C. elegans,[8]; listed as QSP184,induces an aging muscle phenotype
same,Activity index,[8]; [12],0.82
same,Asymmetry,[8]; [12],1.10
same,Body wave number,[8]; [12],1.01
same,Brush stroke,[8]; [12],0.87
same,Curling,[8]; [12],0.92
same,Stretch,[8]; [12],1.03
same,Travel speed,[8]; [12],0.55
same,Wave initiation rate,[8]; [12],0.90
same,Activity index,[8]; [13],0.85
same,Asymmetry,[8]; [13],1.37
same,Body wave number,[8]; [13],1.29
same,Brush stroke,[8]; [13],0.89
same,Curling,[8]; [13],1.50
same,Stretch,[8]; [13],1.06
same,Travel speed,[8]; [13],0.81
same,Wave initiation rate,[8]; [13],0.84
same,IC10,"[9]; MTT, Tubes",10 nM
same,IC50,"[9]; MTT, Tubes",60 nM
same,Imax (relative MTT),[9]; Tubes,0.48 relative MTT
same,Relative MTT,[9]; concentration 0.10 μM,0.68
same,Relative MTT,[9]; concentration 0.50 μM,0.60
same,Relative MTT,[9]; concentration 1.00 μM,0.56
same,Relative MTT,[9]; concentration 5.00 μM,0.49
same,Relative MTT,[9]; concentration 10 μM,0.49
same,Imax (relative MTT),[10]; Blasts,0.63 relative MTT
same,IC10,"[10]; MTT, Blasts",400 nM
same,IC50,"[10]; MTT, Blasts",1490 nM
same,Effect: viability (hit direction),"[10]; screening at 1 μM, hit selection by MAD/quartile/SSMD/robust SSMD",decreasing viability hits
same,stability in the medium,[11],high stability
